Measured values from ChEMBL document CHEMBL1201862, “PubChem BioAssay data set” (2004).
Counter-ions that a name gives are not always drawn. The source made the active and inactive calls.

Key:
[1] = P. falciparum Dd2 growth inhibitors, dose response, SYBR Green, dry powder samples, set 9 (AID 1159568); assay type: functional, cell-based
[2] = Shn3 3'UTR reporter inhibitors, dose response, cell-based, Clone20 osteoblasts, firefly luciferase, cherry-picked (AID 624132); assay type: functional;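 also: firefly luciferase luminescence from reporter carrying the Shn3 3'UTR in osteoblasts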
[3] = reduction of Shn3 3'UTR firefly luciferase signal, dose response, Schnurri-3 inhibitor project, cell-based, Clone20 osteoblasts, cherry-pick, set 2 (AID 720490); assay type: functional;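 also: actives lower the luminescence signal as inhibitors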
[4] = control 3'UTR Renilla luciferase suppression, dose response, counter-screen for Shn3 inhibitor project, cell-based, Clone20-Shn3RL, cherry-picked (AID 624133); assay type: functional
[5] = HepG2 cell cytotoxicity, dose response, cytotoxicity control for Shn3 inhibitor project, CellTiter-Glo, cherry-picked (AID 624134); assay type: functional, cell-based
Prothrombin = Prothrombin (Homo sapiens, UniProt P00734); assay: Thrombin 1536 HTS Dose Response Confirmation. [Related pubchem assays: 1046 (Thrombin 1536 HTS; hits were confirmed in this assay)]; assay type: functional
cells [6] = assay: cells
Major prion protein = Major prion protein (Homo sapiens, UniProt P04156); assay type: functional, cell-based
[7] = molecular target: T1, Oxysterols receptor LXR-beta (Homo sapiens, UniProt P55055); assay type: functional, cell-based
T1 sequence (P55055 whole entry): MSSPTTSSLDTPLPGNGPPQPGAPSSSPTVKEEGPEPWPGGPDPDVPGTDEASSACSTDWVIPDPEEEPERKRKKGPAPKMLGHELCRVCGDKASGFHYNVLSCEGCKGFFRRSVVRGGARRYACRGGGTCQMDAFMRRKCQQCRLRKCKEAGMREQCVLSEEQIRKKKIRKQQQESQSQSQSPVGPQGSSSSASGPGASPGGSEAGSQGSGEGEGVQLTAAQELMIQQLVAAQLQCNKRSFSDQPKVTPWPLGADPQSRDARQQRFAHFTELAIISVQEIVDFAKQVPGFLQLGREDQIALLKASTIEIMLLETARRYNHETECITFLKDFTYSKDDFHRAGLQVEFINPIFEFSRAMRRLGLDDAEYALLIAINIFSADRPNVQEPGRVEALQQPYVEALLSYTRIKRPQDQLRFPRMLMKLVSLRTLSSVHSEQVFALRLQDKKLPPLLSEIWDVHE

[8] = molecular target: RNA-editing ligase 1, mitochondrial (Trypanosoma brucei brucei, UniProt P86926); assay: TbREL1 ligase inhibitors, dose response, biochemical, fluorescence, Trypanosoma brucei (AID 1117295); assay type: functional
[9] = molecular target: Induced myeloid leukemia cell differentiation protein Mcl-1 (Homo sapiens, UniProt Q07820); assay type: functional
[10] = molecular target: T2, Small ubiquitin-related modifier 1 (Homo sapiens, UniProt P63165); assay: inhibitors of SUMO1 partner interactions, dose response, biochemical, FRET (AID 624383); assay type: functional; conditions: read-out: IC50_Mean
Kallikrein-7 = Kallikrein-7 (Homo sapiens, UniProt P49862); assay: Fluorescence Intensity-based biochemical primary high throughput dose response assay to identify activators of kallikrein-7 (K7) zymogen.
[11] = molecular target: T2, Small ubiquitin-related modifier 1; assay: inhibitors of SUMO1 peptide binding, dose response, biochemical, fluorescence polarization, uHTS hits (AID 624382); assay type: functional; conditions: read-out: IC50_Mean
[12] = molecular target: T1, Oxysterols receptor LXR-beta; assay type: functional, cell-based; remark: listed apart in the source
cells [13] = assay: cells; remark: listed apart in the source
[14] = Dose-response inhibition of insulin secretion in a rat insulinoma line at 5 mM glucose (AID 1117331); assay type: functional, cell-based; conditions: INS-1E
[15] = HepG2 cell cytotoxicity, dose response, cytotoxicity control, cherry-picked samples (AID 1159577); assay type: functional, cell-based
[16] = P. falciparum Dd2 growth inhibitors, dose response, SYBR Green, cherry-picked samples (AID 1159567); assay type: functional, cell-based
Paired box protein Pax-8 = Paired box protein Pax-8 (Homo sapiens, UniProt Q06710); assay: inhibitors of PAX8-driven TPO luciferase reporter, dose response, RMG-I cells, cherry-pick (AID 687027); assay type: functional, cell-based;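 also: luciferase reporter driven by Pax8 target thyroperoxidase promoter measured by SteadyGlo luminescence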
[17] = non-specific cell cytotoxicity, dose response, cytotoxicity control for PAX8 inhibitor project, plate reader, dry powder samples (AID 743021); assay type: functional, cell-based
[18] = molecular target: T3, Ubiquitin-conjugating enzyme E2 N (Homo sapiens, UniProt P61088); assay type: functional;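 also: Dose-response confirmation in a TR-FRET assay detecting UBC13-driven polyubiquitin chain formation, inhibition measured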
T3 sequence (P61088 whole entry): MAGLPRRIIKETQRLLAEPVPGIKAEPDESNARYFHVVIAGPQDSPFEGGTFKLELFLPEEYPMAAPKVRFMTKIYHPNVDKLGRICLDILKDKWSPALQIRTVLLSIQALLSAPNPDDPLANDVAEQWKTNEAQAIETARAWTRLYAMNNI

[19] = Late stage counterscreen for inhibitors of Trypanosoma brucei methionyl tRNA synthetase (MetRS): Luminescence-based cell-based high throughput dose response assay to identify compounds that are cytotoxic to Jurkat human T lymphocyte cells.; assay type: functional
[20] = molecular target: Endoplasmic reticulum aminopeptidase 1 (Homo sapiens, UniProt Q9NZ08); assay: ERAP1 aminopeptidase inhibitors, dose response, biochemical, cherry-pick, set 2, plate reader (AID 743314)
[21] = molecular target: Solute carrier family 12 member 2/member 5 (Homo sapiens, UniProt P55011+Q9H2X9); assay: KCC2 and NKCC1 inhibition by rubidium flux, cell-based, NKCC1 counter-screen (AID 1734); assay type: functional, HEK293
[22] = Counterscreen for inhibitors of Trypanosoma brucei methionyl tRNA synthetase (MetRS): Luminescence-based cell-based high throughput dose response assay to identify compounds that are cytotoxic to Jurkat human T lymphocyte cells.; assay type: functional
[23] = molecular target: T4, Methionyl-tRNA synthetase, putative (Trypanosoma brucei brucei, UniProt Q38C91); assay type: functional, Trypanosoma brucei brucei strain 927/4 GUTat10.1
T4 sequence (Q38C91 whole entry): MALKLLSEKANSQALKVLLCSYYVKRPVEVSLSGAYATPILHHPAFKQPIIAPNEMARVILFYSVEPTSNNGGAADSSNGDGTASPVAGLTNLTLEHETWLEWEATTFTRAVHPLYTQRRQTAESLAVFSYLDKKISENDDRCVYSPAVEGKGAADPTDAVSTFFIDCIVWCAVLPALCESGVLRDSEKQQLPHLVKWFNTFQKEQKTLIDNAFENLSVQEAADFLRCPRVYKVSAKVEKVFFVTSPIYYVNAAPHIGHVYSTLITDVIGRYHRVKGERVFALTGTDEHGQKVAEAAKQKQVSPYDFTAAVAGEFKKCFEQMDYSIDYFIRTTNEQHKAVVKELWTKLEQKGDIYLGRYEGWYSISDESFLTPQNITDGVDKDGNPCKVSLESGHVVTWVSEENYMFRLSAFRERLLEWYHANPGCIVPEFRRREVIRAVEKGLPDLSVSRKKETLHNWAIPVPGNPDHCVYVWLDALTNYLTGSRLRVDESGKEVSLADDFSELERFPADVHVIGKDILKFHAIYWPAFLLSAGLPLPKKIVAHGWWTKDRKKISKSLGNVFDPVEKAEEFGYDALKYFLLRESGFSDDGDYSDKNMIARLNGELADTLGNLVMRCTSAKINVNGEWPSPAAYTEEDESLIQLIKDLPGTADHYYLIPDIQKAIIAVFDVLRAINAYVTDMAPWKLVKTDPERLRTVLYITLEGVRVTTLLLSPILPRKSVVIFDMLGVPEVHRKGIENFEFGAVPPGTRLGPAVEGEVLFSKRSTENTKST

[24] = molecular target: T4, Methionyl-tRNA synthetase, putative; assay type: functional, Trypanosoma brucei brucei strain 927/4 GUTat10.1; remark: listed apart in the source
[25] = molecular target: Luciferin 4-monooxygenase (Photinus pyralis, UniProt P08659); assay: firefly luciferase enzyme inhibitors, dose response, biochemical, luminescence (AID 1891)
Protein skinhead-1 = molecular target: T5, Protein skinhead-1 (Caenorhabditis elegans, UniProt P34707); assay type: functional
T5 sequence (P34707 whole entry): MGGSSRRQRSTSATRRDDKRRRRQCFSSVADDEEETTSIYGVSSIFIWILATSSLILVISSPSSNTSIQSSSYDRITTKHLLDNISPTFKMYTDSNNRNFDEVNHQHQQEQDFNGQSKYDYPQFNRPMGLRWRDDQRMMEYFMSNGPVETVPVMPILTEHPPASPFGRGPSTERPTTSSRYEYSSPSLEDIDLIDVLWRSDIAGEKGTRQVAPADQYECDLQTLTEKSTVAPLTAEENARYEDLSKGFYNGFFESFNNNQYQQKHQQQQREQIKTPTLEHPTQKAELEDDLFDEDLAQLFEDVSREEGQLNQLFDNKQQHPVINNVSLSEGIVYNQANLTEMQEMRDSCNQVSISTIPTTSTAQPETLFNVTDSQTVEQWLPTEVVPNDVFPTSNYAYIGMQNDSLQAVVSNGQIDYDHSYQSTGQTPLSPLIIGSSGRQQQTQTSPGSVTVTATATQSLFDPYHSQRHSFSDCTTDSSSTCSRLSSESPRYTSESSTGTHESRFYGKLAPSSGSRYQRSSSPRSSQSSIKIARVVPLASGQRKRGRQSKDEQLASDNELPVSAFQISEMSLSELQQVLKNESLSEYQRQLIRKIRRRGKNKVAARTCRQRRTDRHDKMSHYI

[26] = Luminescence Cell-Based Dose Confirmation HTS to Identify Inhibitors of Platelet Dense Granule Release. [Related pubchem assays: 1663 (Primary HTS), 1678 (Summary of Project)]; assay type: functional

## C[C@@H]1CCCCO[C@@H](CN(C)S(=O)(=O)c2ccc(F)cc2)[C@H](C)CN([C@H](C)CO)C(=O)c2cc(N(C)C)ccc2O1
[1]
  AC50: 4.62 µM (active)

## COc1cccc(-n2c(C)nc3c(cnn3-c3ccc(Cl)cc3)c2=O)c1
[2]
  AC50: 0.391 µM (active)
[3]
  AC50: 2.14 µM (active)
[4]
  AC50: 2.98 µM (active)
[5]
  AC50: 61.4 µM (active)

## O=C(NC(=S)Nn1cnnc1)c1ccccc1Cl
Prothrombin
  IC50: > 50 µM (not active)

## O=C(O)CSc1ccnc2cc(Cl)ccc12
Cells [6]
  IC50: > 138 µM (inactive)
Major prion protein
  IC50: 4.04 µM (active)

## Cc1ccc2c(c1)N=C(c1ccccc1)CC(C(Cl)Cl)=N2
[7]
  EC50: > 67.5 µM (inactive)

## O=C(CSc1nnc(-c2ccco2)c(-c2ccco2)n1)c1ccccc1
[8]
  IC50: > 96.6 µM (inactive)
[9]
  IC50: 3.19 µM (active)

## O=C(Cc1cc(=O)oc2cc(O)ccc12)NN=Cc1ccc(N(CCCl)CCCl)cc1
[10]
  IC50: 8.3 µM (active)
Kallikrein-7
  EC50: > 23.2 µM (inactive)
[11]
  IC50: > 66.6 µM (inactive)

## COc1ccccc1Cn1c(=S)[nH]c2ccccc2c1=O
Cells [6]
  IC50: > 138 µM (inactive)
Major prion protein
  IC50: 3.49 µM (active)

## Cc1cccn2c(=O)c3cc(C(=O)N4CCOCC4)n(C)c3nc12
Kallikrein-7
  EC50: > 2.58 µM (active)

## COc1cc(CCC(=O)Nc2cccc(C(F)(F)F)c2)cc(OC)c1OC
Prothrombin
  IC50: > 50 µM (not active)

## CCOC(=O)c1cc(-c2cccc(O)c2)oc1C
[12]
  EC50: > 67.5 µM (inactive)
Cells [13]
  EC50: > 67.5 µM (inactive)

## CCCCCCCN1C(Nc2ccccc2)=NC[C@@H]1CC(C)C
[8]
  IC50: > 96.6 µM (inactive)

## CCN1CCCC(OC(=O)C(c2ccccc2)c2ccccc2)C1 (centres undefined) [PIPERIDOLATE HYDROCHLORIDE]
[14]
  IC50: 18.2 µM (inactive)

## COc1cc(CN2C[C@@H]3N[C@H](C2)[C@H]3c2ccc(/C=C/c3ccccc3)cc2)cc(OC)c1
[15]
  AC50: 7.85 µM (active)
[16]
  AC50: 2.11 µM (active)

## C(=C\c1ccc([C@@H]2[C@@H]3CN(Cc4nccs4)C[C@H]2N3)cc1)/c1ccccc1
[15]
  AC50: 7.83 µM (active)
[16]
  AC50: 3.67 µM (active)

## C[C@@H]1CN([C@@H](C)CO)C(=O)c2cc(N(C)C)ccc2O[C@@H](C)CCCCO[C@H]1CN(C)S(=O)(=O)c1ccc(F)cc1
Paired box protein Pax-8
  AC50: 6.76 µM (active)
[1]
  AC50: 19.4 µM (active)

## CCC[C@@H](CN[C@@H](CNC)[C@H](C)CC)NCC1CCC(C(C)(C)C)CC1 (some centres undefined)
Paired box protein Pax-8
  AC50: 14.4 µM (active)
[17]
  AC50: 37.7 µM (active)
[18]
  IC50: > 20 µM (inactive)

## O=C(NCc1nc2ccccc2[nH]1)C1=C[C@H](c2ccccc2)C[C@H](OCc2ccc(CO)cc2)O1
[19]
  IC50: > 83.3 µM (inactive)

## CCN(CC)Cc1c(O)ccc2cc(-c3nc4ccccc4n3C)c(=O)oc12
[20]
  AC50: 1.8 µM (active)

## O=C(Nc1cccnc1)c1ccc(COc2ccccc2Cl)o1
[21]
  IC50: 12.1 µM (active)

## C[C@@H](C1=C(CCN(C)C)Cc2ccccc21)c1ccccn1
[14]
  IC50: 8.41 µM (inactive)

## CN(Cc1ccccc1)S(=O)(=O)c1ccc(Cl)c(C(=O)NCCc2ccccn2)c1
[21]
  IC50: 2.5 µM (active)

## COc1ccc(OCC(O)CNC(=O)Nc2ccc(Cl)cc2)cc1 (centres undefined)
[22]
  IC50: 83.3 µM (inactive)
[23]
  IC50: 4.66 µM (active)
[24]
  IC50: 4.39 µM (active)
[19]
  IC50: > 83.3 µM (inactive)

## COc1cccc(-c2noc(-c3cccs3)n2)c1
[25]
  EC50: 7.26 µM (active)
Protein skinhead-1
  IC50: 13.7 µM (active)
[26]
  EC50: > 112 µM (not active)
[7]
  EC50: > 67.6 µM (inactive)
